Where two headings read alike, the source gives them in different places.
Legend:
[1] = tested on: circumflex branch of the left coronary artery; assay: Test on the relaxation of coronary arteries: coronary blood flow and blood flow status (haemodynamics) in anesthetized open-chest dogs, intracoronary administration; format: in vivo, mongrel adult dogs; conditions: for Blood Flow at Rotation Branch: 4 min
Procedure: Twenty mongrel adult dogs were anesthetized with 30 mg/kg pentobarbital, their breasts were opened under an artificial respiration and heparin (3,000 IU/kg; each 1,000 IU/mg administered intravenously every 30 minutes thereafe) and aspirin (17 mg/kg) were administered. Then a cannula was inserted near the circumflex branch of the left coronary artery and a perfusion was conducted by means of a bypath from the whole left carotid artery. Coronary blood flow was measured, by an electromagnetic blood flowmeter (MFV-3200 manufactured by Nippon Koden) via a probe for measuring the blood flow (manufactured by Nippon Koden) located at the center of the bypath while the artery pressure and the left cardiac pressure were measured at an underarm artery and by means of a catheter inserted from the apex, respectively.

[2] = tested on: circumflex branch of the left coronary artery; assay: Effect of various pharmaceuticals on coronary blood flow increase by administration of compound A; format: in vivo, mongrel adult dogs; conditions: 1.0 mM in artery
Procedure: The compound A was administered for four minutes, by the same manner as in Example 6, to a control group, to a group (LNAME-treated group) which was pretreated with a methyl ester of NG-nitro-L-arginine which was an inhibitor for the production of nitrogen monoxide caused by endothelium (by administering to the coronary artery at the dose of 200 μM for six minutes), to a group (8PT-treated group) which was pretreated with 8-phenyltheophylline which was an adenosnine antagonist (by administering to the coronary artery at the dose of 30 ng/kg/minute) an a group (autonomic nerve blocking group) which was pretreated with a pharmacological autonomic blocking agent (by an intravenous administration of 0.1 mg/kg of atropine, 1 mg/kg of propranolol and 2 mg/kg of phentolamine) to make the concentration of the compound A in the coronary artery 1.0 mM whereby the results were compared.

[3] = tested on: ring samples of the circumflex branch (coronary artery); assay: In vitro test: relaxation of ring samples of the circumflex branch precontracted by prostaglandin F2α (isometric tension); set-up: species or system mongrel adult dogs; conditions: for EC50: Canis lupus familiaris, read-out: ED50 value expressed in terms of a minus logarithm of the administered concentration, endothelium absent (converted)
Procedure: After an anesthetization of the mongrel adult dogs, the extracted ring samples (outer diameter: about 2 mm) of the circumflex branch were prepared, hung in a chamber filled with 3 ml of a Krebs buffer which was oxidated (with 95% oxygen and 5% […]), balanced with an initial tension of 2 g and subjected to a precontraction by prostaglandin F2α (concentration in the chamber: 2 μM).
To this was added the compound A on an accumulated manner whereby its concentration in the chamber became from 1 μM to 1 mM and the resulting changes in the isometric tension were measured using a tranducer (manufactured by Minebea) and recorded in a pen recorder (SR6211 manufactured by Graphtec). Incidentally, the changes in the tension were evaluated on a basis that the precontraction by prostaglandin F2α was 100%. In some of the samples, the endothelium was exfoliated (confirmed by a disappearance of the relaxation to 1 μM of acetylcholine) and, furthermore, they were subjected to a pretreatment with Methylene Blue, an inhibitor for a soluble guanylate cyclase, (concentration in the chamber: 10 μM; administered 30 minutes before) whereby the effect was investigated.
Therefore, it is supposed that the compounds of the present invention activated the guanylate cyclase on a continued basis whereby the blood vessel was continuously relaxed.

[4] = Behavior of compound A in blood flow: blood and urine samples determined by electronic spin resonance after the administration; conditions: for clearance (in words) / excretion from the kidney: dog, in vivo
Procedure: Thus, within a certain period after the administration, samples of blood and urine were collected and "a concentration of the compound A which was unchanged and retained" and "a total concentration after oxidization with potassium ferricyanide" were determined by means of an electronic spin resonance (RF80; Nippon Denshi).

[5] = tested on: circumflex branch of the left coronary artery; assay: Comparative Example 1: blood flow after administration of compound A reduced with ascorbic acid; format: in vivo, mongrel dogs
Procedure: The operation of Example 4 was conducted by administering the compound A wherefrom the N-oxyl radical was inactivated only after reducing with ascorbic acid. […] It is therefore apparent that the pharmacological action was due to the radical in the molecule and that the compounds of the present invention are the pharmaceuticals of a new type.

## CC1(C)N=C(c2ccc(C(=O)O)cc2)N([O])C1(C)C [Compound A]
[1]; 0.1 mM in artery
  Av. Blood Pressure: 130 ± 8 mmHg
  Left Cardiac dp/dt: 1132 ± 60 mmHg/sec
  Pres. at Final Stage of Left Cardiac Dilation: 11 ± 2 mmHg
  Pulse Numbers: 155 ± 8 min⁻¹
  Blood Flow at Rotation Branch: 29.8 ± 3.6 mL/min
[1]; 0.3 mM in artery
  Av. Blood Pressure: 133 ± 8 mmHg
  Left Cardiac dp/dt: 1210 ± 63 mmHg/sec
  Pres. at Final Stage of Left Cardiac Dilation: 10 ± 2 mmHg
  Pulse Numbers: 154 ± 8 min⁻¹
[1]; 0.3 mM in artery, p < 0.05 to the control
  Blood Flow at Rotation Branch: 41.5 ± 5.7 mL/min
[1]; 1 mM for four minutes
  duration of effect on coronary blood flow after completion of the administration: ≥ 30 min
  increase in coronary blood flow (fold): about three
  increasing rate of coronary blood flow: ca. 200%
[1]; 1.0 mM in artery
  Av. Blood Pressure: 132 ± 7 mmHg
  Left Cardiac dp/dt: 1241 ± 50 mmHg/sec
  Pres. at Final Stage of Left Cardiac Dilation: 10 ± 2 mmHg
  Pulse Numbers: 157 ± 8 min⁻¹
[1]; 1.0 mM in artery, p < 0.01 to the control, 0.1 mM and 0.3 mM
  Blood Flow at Rotation Branch: 89.7 ± 10.6 mL/min
[1]; 0.1, 0.3 and 1.0 mM in artery
  blood pressure (in words): no change
  contracting power of the heart (in words): rather improved
  left cardiac dp/dt (in words): increasing tendency
  pressure at the final stage of the left cardiac dilation (in words): no change
  pulse numbers (in words): no change
[1]; 0.1, 0.3 and 1.0 mM in artery, FIG. 2
  coronary blood flow (in words): significant increase in the coronary blood flow
[1]; intracoronary administration
  side effect (in words): no side effect was noted
[2]; 8PT-treated group
  % Increase of blood flow in rotary branch: 120 ± 10%
[2]; 8PT-treated group, before 23.1 ± 2.7
  Blood Flow in Rotary Branch, after administration of Compd A: 51.6 ± 5.8 mL/min
[2]; LNAME, 8-phenyltheophylline, autonomic blockade
  influence of pretreatments on the action of the compound A (in words): none of the pharmaceuticals affected on the action of the compound A
[2]; LNAME-treated group
  % Increase of blood flow in rotary branch: 155 ± 28%
[2]; LNAME-treated group, before 26.1 ± 2.7
  Blood Flow in Rotary Branch, after administration of Compd A: 67.0 ± 11.5 mL/min
[2]; autonomic nerve blocked group
  % Increase of blood flow in rotary branch: 137 ± 56%
[2]; autonomic nerve blocked group, before 19.5 ± 3.3
  Blood Flow in Rotary Branch, after administration of Compd A: 49.3 ± 18.5 mL/min
[2]; control group
  % Increase of blood flow in rotary branch: 164 ± 31%
[2]; control group, before 32.0 ± 2.1
  Blood Flow in Rotary Branch, after administration of Compd A: 84.9 ± 13.7 mL/min
[3]; 1 μM to 1 mM, with vs without endothelium, FIG. 4
  influence of the endothelium on coronary artery relaxation (in words): stronger than that in the absence of the endothelium
[3]; no Methylene Blue
  EC50: 10 µM
[3]; with Methylene Blue 10 μM, 30 minutes before, p<0.01
  EC50: 79.4 µM
[4]; by ascorbic acid, etc. in blood
  reduction in blood (stability of N-oxyl radical): quickly reduced by ascorbic acid, etc. in blood
[4]
  clearance (in words): very prompt
  excretion from the kidney: rapidly excreted from the kidney
[4]; one minute after the administration
  total amount of compound A remaining in the blood: about 0.3%

## CN(C)c1ccc2nc3ccc(=[N+](C)C)cc-3sc2c1 [Methylene Blue, reference compound]
[3]; endothelium absent, 10 μM, 30 minutes before
  inhibition of the coronary artery relaxing action of compound A (in words): found to inhibit that

## CC1(C)N=C(c2ccc(C(=O)O)cc2)N(O)C1(C)C
[5]; 1.0 mM (FIG. 3), before the administration 22.4 ml/minute
  blood flow after the administration: 22.8 mL/min
[5]; after reducing with ascorbic acid
  pharmacological action (in words): completely disappeared
[5]; before vs after the administration, FIG. 3
  change in the blood flow (in words): no changes in the blood flow
[4]
  clearance (in words): very prompt
  excretion from the kidney: rapidly excreted from the kidney

Source: patent US5536744A, “Imidazolinoxyl derivatives” (Dojindo Laboratories, priority 1993, dated 1996)
